Test results: article PMC12373846, “Hemoglobin as a pseudoperoxidase and drug target for oxidative stress-related diseases” (Signal Transduction and Targeted Therapy, 2025)
pIC50: −log10 of the molar value. Values belong to the molecule of their own block, whether it stands above or below them.

How the values were obtained:
[1] = DPPH radical scavenging assay; details: Fig. S1e
Description: In a 96-well microplate, samples (20 μl) at concentrations ranging from 0.1 to 100 μM were mixed with 80 μL of 50 mM sodium phosphate buffer (pH 7.2) and 100 μL of DPPH (1,1-diphenyl-2-picrylhydrazyl) solution (250 μM in methanol) and incubated for 30-min in the dark. Each sample was quantified using a microplate fluorescence reader (SpectraMax iD5, Molecular Devices) at absorbance (517 nm). Edaravone was used as a positive control. The radical scavenging activity was estimated using the following equation: sample absorbance / control absorbance ×100. The dose-response curve, EC50 for the DPPH, was calculated and determined by fitting data with GraphPad Prism software. The fitting method had no special handling of outliers.

[2] = tested on: primary cultured hippocampal astrocytes; assay: DCFDA intracellular ROS assay; type: cell-based, mouse; details: Fig. 3d
Description: (§1) Primary hippocampal astrocytes were obtained from postnatal day 0‒2 (P0‒2) C57BL/6 mice as previously described.[73] The hippocampal tissue was dissected free of meninges, minced, and dissociated into a single-cell suspension by trituration. The cells were grown in Dulbecco’s modified Eagle’s medium supplemented with D-glucose (4500 mg/L), L-glutamine, sodium pyruvate (110 mg/L), 10% heat-inactivated horse serum, 10% heat-inactivated fetal bovine serum, and 1000 U/ml penicillin‒streptomycin. The cells were maintained at 37 °C in a humidified atmosphere containing 5% CO2.
The intracellular ROS levels of astrocytes were determined via 2′,7′- dichlorodihydrofluorescein diacetate (DCFDA; Thermo Fisher). Primary cultured hippocampal astrocytes were seeded into black 96-well plates (Ibidi) at a density of 5 × 10⁴ cells per well. The plates were incubated with oligomerized Aβ42 in the presence of KDS12008, KDS12017, KDS12025, HTPEB (10 µM each), and sodium pyruvate (1 mM). These cells were subsequently washed with Ca^2+ and Mg^2+-containing PBS, followed by the application of 30 µM DCFDA and incubation at 37 °C for 30 min in a dark incubator. The mean fluorescence intensity of each well was measured via iD5 microplate readers at 485 nm and 530 nm. The fluorescence values were calculated by subtracting the blank readings and normalizing them to those of the control group.

[3] = tested on: primary cultured hippocampal astrocytes; assay: oROS-G intracellular H2O2 imaging; type: cell-based, mouse; details: Fig. 3f
Description: as §1
H2O2 specific, highly sensitive, and fast on-and-off kinetics, a genetically encoded oROS-G plasmid kindly provided by Dr. Andre Berndt. oROS-G was cloned under the GFAP104 promoter and delivered into primary cultured hippocampal astrocytes via the NeoN^TM transfection system (Invitrogen). The cells were treated with various concentrations of Aβ (1 to 10 μM) or 6-OHDA (Tocris, 2547; 10 to 50 μM) to induce aberrant H2O2. For subsequent experiments, 5 μM Aβ and 30 μM 6-OHDA were selected on the basis of initial dose‒response studies. KDS12025 (10 μM) and sodium pyruvate (1 mM) were applied as indicated in each experiment. For live-cell imaging, astrocytes were maintained in a humidified chamber at 37 °C with 5% […] during imaging to preserve physiological conditions. Changes in the fluorescence of oROS-G were recorded via an A1 Nikon confocal microscope equipped with a temperature- and humidity-controlled stage. Images were captured every 20 min for up to 40 h (20for the 6-OHDA experiments) via the NIS-Elements software (Nikon, Japan) for time-lapse imaging. The excitation and emission wavelengths for oROS-G fluorescence were set to 485 nm and 538 nm, respectively. Endpoint fluorescence measurements were also collected for KDS12025 dose-dependent experiments. To analyze the fluorescence intensity, individual regions of interest (ROIs) were manually selected for each astrocyte via NIS-Elements software (Nikon, Japan). The fluorescence intensity changes were normalized to the baseline values (ΔF/F0) to quantify the H2O2 dynamics. To determine the EC50 of KDS12025, endpoint fluorescence intensity data from oROS-G experiments were normalized to those of the Aβ+vehicle control group. The normalized data were analyzed via GraphPad Prism software to fit a four-parameter logistic curve, yielding the EC50 value for the H2O2-decomposing activity of KDS12025.

HRP = target: T1, HRP (Armoracia rusticana, UniProt P00433); assay: ROS-Glo H2O2 assay with HRP; type: biochemical, horseradish
T1 sequence (P00433 31-353): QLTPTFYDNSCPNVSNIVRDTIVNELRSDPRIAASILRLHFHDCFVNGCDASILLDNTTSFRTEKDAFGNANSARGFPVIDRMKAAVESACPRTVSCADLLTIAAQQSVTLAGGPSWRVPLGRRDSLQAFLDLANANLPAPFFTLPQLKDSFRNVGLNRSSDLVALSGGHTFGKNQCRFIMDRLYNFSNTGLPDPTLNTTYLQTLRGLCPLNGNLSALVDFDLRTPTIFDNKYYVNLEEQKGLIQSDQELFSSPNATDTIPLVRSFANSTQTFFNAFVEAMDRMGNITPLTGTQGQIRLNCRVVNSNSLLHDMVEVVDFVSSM
Description: Hb (Sigma‒Aldrich, H7379), H2O2 (Sigma‒Aldrich, H1009), and Amplex Red reagents (Invitrogen, A12222) were obtained for the study. A 4 μM H2O2 solution was prepared in 50 mM sodium phosphate buffer (pH 7.2). Then, 49 μl of this mixture was mixed with 1 μl of the test compound in DMSO or distilled water. The mixture was combined with an assay mixture of Amplex Red reagent (20 mM stock to 0.1 mM) and HRP (200 U/ml stock to 0.2 U/ml) and added to the wells at 50 μl/well. After a 60-min incubation at 37 °C, resorufin production was quantified via a microplate fluorescence reader (SpectraMax iD5, Molecular Devices) at ex/em = 535/580 nm. […] For the ROS-Glo assay, the H2O2 substrate solution and ROS-Glo detection solution were prepared according to the manufacturer’s instructions. 10 μM H2O2 and drugs were prepared as in the Amplex Red assay, with HRP, Hb, CAT, or GPx added as needed. The mixture was added to the wells at 100 μl/well and incubated for 60 min at 37 °C. H2O2 substrate solution was added, and the mixture was incubated at room temperature for 30 min. After the H2O2 substrate solution was added and incubated at room temperature for 30 min, the ROS-Glo detection solution was added, and the mixture was incubated for 15 min. Luminescence was measured via iD5 microplate readers. […] The U/ml was calculated on the basis of the amount of H2O2 reduced by Hb during the reaction, using μg/ml and U/mg.
To evaluate the extent of peroxidase function facilitation by HTPEB (1 μM) and KDS12025 (1 μM) in HRP (0.2 U/ml) and Hb (10 μg/ml), we used the ROS-Glo assay over 30 and 60 min. The fold change was calculated by dividing the delta values during the 30-min reaction for the vehicle over drug conditions.

pIC50 [1]: 4.78
Molecule: CC1=NN(c2ccccc2)C(=O)C1 [Edaravone]

Molecule: Aβ: oligomerized Amyloid-beta (Aβ)42 aggregates [reference compound]
ROS level (DCFDA) ([2]; Aβ 1μM): 101.9±6.217
ROS level (DCFDA) ([2]; Aβ 5μM): 137.3±8.218
ROS level (DCFDA) ([2]; Aβ 10μM): 155.2±9.442
oROS-G fluorescence (intracellular H2O2) ([3]; Aβ 1μM): 109.4±4.271
oROS-G fluorescence (intracellular H2O2) ([3]; Aβ 5μM): 140.5±4.407
oROS-G fluorescence (intracellular H2O2) ([3]; Aβ 10μM): 208.1±3.662

EC50 of HRP for H2O2 decomposition without HTPEB (HRP; Fig. S1a): 0.062 U/ml
tau value, reaction time-response of HRP without HTPEB (HRP; Fig. S1b): 13.7 min
Molecule: HRP: horseradish peroxidase, plant-derived heme-containing peroxidase
